Measurements reported in patent publication US20260176320A1, “MODULATORS OF G-PROTEIN COUPLED RECEPTORS” (priority 2018, published 2026).
Where two headings read alike, the source gives them in different places. Numbered stars: 1 amine (or outer) side, 2 acyl side, 3 side chain; on linkers, the order of the positions; unused ones are H or OH. Square brackets hold non-standard residues; d marks the D form. Side chains are listed from the residue outwards. Peptide text beside a SMILES is read from it. * marks the point of attachment. γGlu = O=C(O)[C@H](CCC(=O)[*:2])N[*:1]; X2 = O=C(CSCC(=O)*)NCCN1C(=O)CSC1=O; Palmitoyl = CCCCCCCCCCCCCCCC(=O)*; Aib = CC(C)(N)C(=O)O

Legend:
Assay type in all cases: cell-based
[1] = molecular target: T1, GIP-R (Homo sapiens, UniProt P48546); assay: HitHunter cAMP assay (GIP-R); details: cAMP; for Emax: read-out: (Emax) GIP-R
T1 sequence (P48546 22-466): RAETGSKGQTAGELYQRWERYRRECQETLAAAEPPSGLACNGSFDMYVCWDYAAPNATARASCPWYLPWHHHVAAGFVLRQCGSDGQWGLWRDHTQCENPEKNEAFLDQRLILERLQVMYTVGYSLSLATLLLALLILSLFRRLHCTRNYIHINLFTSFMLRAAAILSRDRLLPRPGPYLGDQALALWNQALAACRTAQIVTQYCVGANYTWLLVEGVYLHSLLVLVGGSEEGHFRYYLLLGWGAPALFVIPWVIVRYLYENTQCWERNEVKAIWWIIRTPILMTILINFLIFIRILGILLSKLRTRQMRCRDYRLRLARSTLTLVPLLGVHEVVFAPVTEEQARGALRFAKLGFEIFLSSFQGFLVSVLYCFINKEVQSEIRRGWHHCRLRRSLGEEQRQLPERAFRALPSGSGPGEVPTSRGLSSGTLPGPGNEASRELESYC
How it was run: (§1)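 Cells were resuspended in HBSS plus HEPES, IBMX (625 μM) and BSA, then dispensed with antibody at 10,000 per well. Agonists followed as 22-point twofold series, 30 min at room temperature. Antibody reagent and detection steps ran 1 h and overnight in the dark before luminescence.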

[2] = molecular target: T2, GLP-1R (Homo sapiens, UniProt P43220); assay: PathHunter β-arrestin assay
How it was run: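 Agonist concentration–response (22 points, 2-fold steps, duplicates) was run on cells plated the previous day in BSA-supplemented (0.2%) medium. Stimulation lasted 90 min at 37 °C, followed by a 3 h dark incubation with detection reagent at room temperature and a luminescence read.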

[3] = molecular target: T2, GLP-1R; assay: HitHunter cAMP assay (GLP-1R); details: cAMP; for Emax: read-out: (Emax) GLP-1R
How it was run: as §1

[4] = Table 3, read-out: EC50 GIP-R/nM
[5] = Table 3A, read-out: EC50 GIP-R/nM
[6] = PathHunter β-arrestin assay, read-out: β-arrestin activity EC50
[7] = Table 3, read-out: EC50 GLP-1R/nM
[8] = Table 3A, read-out: EC50 GLP-1R/nM

T2 sequence (P43220 24-463): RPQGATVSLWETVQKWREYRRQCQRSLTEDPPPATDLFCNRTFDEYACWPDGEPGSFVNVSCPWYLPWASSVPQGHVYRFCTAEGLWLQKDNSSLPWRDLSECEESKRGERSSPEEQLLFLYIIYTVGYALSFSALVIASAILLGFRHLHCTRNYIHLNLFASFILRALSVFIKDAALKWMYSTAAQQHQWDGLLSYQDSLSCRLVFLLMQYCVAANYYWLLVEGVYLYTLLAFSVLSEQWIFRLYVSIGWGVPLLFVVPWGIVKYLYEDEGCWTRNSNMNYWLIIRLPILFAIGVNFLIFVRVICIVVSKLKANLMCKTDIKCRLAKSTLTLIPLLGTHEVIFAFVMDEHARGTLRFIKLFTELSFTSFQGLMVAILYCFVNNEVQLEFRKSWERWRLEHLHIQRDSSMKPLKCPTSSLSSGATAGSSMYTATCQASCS

Row | SMILES | Emax ([1]; Table 3) | EC50 [1, 4] | Emax ([1]; Table 3A) | EC50 [1, 5] | EC50 [2, 6] | Emax ([3]; Table 3) | EC50 [3, 7] | Emax ([3]; Table 3A) | EC50 [3, 8] | EC50 ([1]; EC50 GIP-R/nM, Table 3) | EC50 ([1]; EC50 GIP-R/nM, Table 3A) | EC50 [2] | EC50 ([3]; EC50 GLP-1R/nM, Table 3) | EC50 ([3]; EC50 GLP-1R/nM, Table 3A)
1 | CCCCCCCCCCCCCCCC(=O)NCCCC[C@H](NC(=O)[C@H](CO)NC(=O)[C@@H]1CCCN1C(=O)[C@@H]1CCCN1C(=O)[C@@H]1CCCN1C(=O)[C@H](C)NC(=O)CNC(=O)[C@H](CO)NC(=O)[C@H](CO)NC(=O)[C@@H]1CCCN1C(=O)CNC(=O)CNC(=O)[C@H](C)NC(=O)[C@H](CC(C)C)NC(=O)[C@H](CC(C)C)NC(=O)[C@H](Cc1c[nH]c2ccccc12)NC(=O)[C@H](CC(N)=O)NC(=O)[C@@H](NC(=O)[C@H](Cc1ccccc1)NC(=O)[C@H](CCC(=O)O)NC(=O)C(C)(C)NC(=O)[C@H](C)NC(=O)[C@H](C)NC(=O)[C@H](CCC(N)=O)NC(=O)[C@H](CCCCN)NC(=O)[C@H](CC(=O)O)NC(=O)[C@H](CC(C)C)NC(=O)[C@H](Cc1ccc(O)cc1)NC(=O)[C@@H](NC(=O)[C@H](CO)NC(=O)[C@H](Cc1ccc(O)cc1)NC(=O)[C@H](CC(=O)O)NC(=O)[C@H](CO)NC(=O)[C@@H](NC(=O)[C@H](Cc1ccccc1)NC(=O)[C@@H](NC(=O)CNC(=O)[C@H](CCC(=O)O)NC(=O)CSCC(=O)NCCN1C(=O)CSC1=O)[C@@H](C)O)[C@@H](C)O)[C@@H](C)CC)C(C)C)C(N)=O [Compound 60] | 37% | 1 to 10 nM | 37% | 1 to 10 nM | > 1000 nM | 98% | 0.1 to 1 nM | 98% | 0.1 to 1 nM | – | – | – | – | –
2 | CCCCCCCCCCCCCCCC(=O)N[C@@H](CCC(=O)NCCCC[C@H](NC(=O)[C@H](CO)NC(=O)[C@@H]1CCCN1C(=O)[C@@H]1CCCN1C(=O)[C@@H]1CCCN1C(=O)[C@H](C)NC(=O)CNC(=O)[C@H](CO)NC(=O)[C@H](CO)NC(=O)[C@@H]1CCCN1C(=O)CNC(=O)CNC(=O)[C@H](C)NC(=O)[C@H](CC(C)C)NC(=O)[C@H](CC(C)C)NC(=O)[C@H](Cc1c[nH]c2ccccc12)NC(=O)[C@H](CC(N)=O)NC(=O)[C@@H](NC(=O)[C@H](Cc1ccccc1)NC(=O)[C@H](CCC(=O)O)NC(=O)C(C)(C)NC(=O)[C@H](C)NC(=O)[C@H](C)NC(=O)[C@H](CCC(N)=O)NC(=O)[C@H](CCCCN)NC(=O)[C@H](CC(=O)O)NC(=O)[C@H](CCSC)NC(=O)[C@H](C)NC(=O)[C@@H](NC(=O)[C@H](CO)NC(=O)[C@H](Cc1ccc(O)cc1)NC(=O)[C@H](CC(=O)O)NC(=O)[C@H](CO)NC(=O)[C@@H](NC(=O)[C@H](Cc1ccccc1)NC(=O)[C@@H](NC(=O)CNC(=O)[C@H](CCC(=O)O)NC(=O)CSCC(=O)NCCN1C(=O)CSC1=O)[C@@H](C)O)[C@@H](C)O)[C@@H](C)CC)C(C)C)C(N)=O)C(=O)O [Compound 71] (X2-EGTFTSDYSIAMDKQAA[Aib]EFVNWLLAGGPSSGAPPPSK([γGlu-Palmitoyl])-NH2) | 77 to 87% | 1 to 10 nM | 77 to 87% | 1 to 10 nM | > 1000 nM | 102% | 0.1 to 10 nM | 102% | 0.1 to 10 nM | – | – | – | – | –
3 | CCCCCCCCCCCCCCCC(=O)N[C@@H](CCC(=O)NCCCC[C@H](NC(=O)[C@H](CO)NC(=O)[C@@H]1CCCN1C(=O)[C@@H]1CCCN1C(=O)[C@@H]1CCCN1C(=O)[C@H](C)NC(=O)CNC(=O)[C@H](CO)NC(=O)[C@H](CO)NC(=O)[C@@H]1CCCN1C(=O)CNC(=O)CNC(=O)[C@H](C)NC(=O)[C@H](CC(C)C)NC(=O)[C@H](CC(C)C)NC(=O)[C@H](Cc1c[nH]c2ccccc12)NC(=O)[C@H](CC(N)=O)NC(=O)[C@@H](NC(=O)[C@H](Cc1ccccc1)NC(=O)[C@H](CCC(=O)O)NC(=O)C(C)(C)NC(=O)[C@H](C)NC(=O)[C@H](C)NC(=O)[C@H](CCC(N)=O)NC(=O)[C@H](CCCCN)NC(=O)[C@H](CC(=O)O)NC(=O)[C@H](CCSC)NC(=O)[C@H](CCC(N)=O)NC(=O)[C@@H](NC(=O)[C@H](CO)NC(=O)[C@H](Cc1ccc(O)cc1)NC(=O)[C@H](CC(=O)O)NC(=O)[C@H](CO)NC(=O)[C@@H](NC(=O)[C@H](Cc1ccccc1)NC(=O)[C@@H](NC(=O)CNC(=O)[C@H](CCC(=O)O)NC(=O)CSCC(=O)NCCN1C(=O)CSC1=O)[C@@H](C)O)[C@@H](C)O)[C@@H](C)CC)C(C)C)C(N)=O)C(=O)O [Compound 72] (X2-EGTFTSDYSIQMDKQAA[Aib]EFVNWLLAGGPSSGAPPPSK([γGlu-Palmitoyl])-NH2) | 87% | 0.1 to 1 nM | 87% | 0.1 to 1 nM | > 1000 nM | 105% | 0.1 to 1 nM | 105% | 0.1 to 1 nM | – | – | – | – | –
4 | CCCCCCCCCCCCCCCC(=O)N[C@@H](CCC(=O)NCCCC[C@H](NC(=O)[C@H](CO)NC(=O)[C@@H]1CCCN1C(=O)[C@@H]1CCCN1C(=O)[C@@H]1CCCN1C(=O)[C@H](C)NC(=O)CNC(=O)[C@H](CO)NC(=O)[C@H](CO)NC(=O)[C@@H]1CCCN1C(=O)CNC(=O)CNC(=O)[C@H](C)NC(=O)[C@H](CC(C)C)NC(=O)[C@H](CC(C)C)NC(=O)[C@H](Cc1c[nH]c2ccccc12)NC(=O)[C@H](CC(N)=O)NC(=O)[C@@H](NC(=O)[C@H](Cc1ccccc1)NC(=O)[C@H](CCC(=O)O)NC(=O)C(C)(C)NC(=O)[C@H](C)NC(=O)[C@H](C)NC(=O)[C@H](CCC(N)=O)NC(=O)[C@H](CCCCN)NC(=O)[C@H](CC(=O)O)NC(=O)[C@H](CC(C)C)NC(=O)[C@H](Cc1ccc(O)cc1)NC(=O)[C@@H](NC(=O)[C@H](CO)NC(=O)[C@H](Cc1ccc(O)cc1)NC(=O)[C@H](CC(=O)O)NC(=O)[C@H](CO)NC(=O)[C@@H](NC(=O)[C@H](Cc1ccccc1)NC(=O)[C@@H](NC(=O)CNC(=O)[C@H](CCC(=O)O)NC(=O)CSCC(=O)NCCN1C(=O)CC[C@@H](C)C1=O)[C@@H](C)O)[C@@H](C)O)[C@@H](C)CC)C(C)C)C(N)=O)C(=O)O [Compound 85] | 83% | – | 83% | – | – | 103% | – | 103% | – | 0.1 to 1 nM | 0.1 to 1 nM | > 1000 nM | 1 to 10 nM | 1 to 10 nM
5 | CCCCCCCCCCCCCCCC(=O)N[C@@H](CCC(=O)NCCCC[C@H](NC(=O)[C@H](CO)NC(=O)[C@@H]1CCCN1C(=O)[C@@H]1CCCN1C(=O)[C@@H]1CCCN1C(=O)[C@H](C)NC(=O)CNC(=O)[C@H](CO)NC(=O)[C@H](CO)NC(=O)[C@@H]1CCCN1C(=O)CNC(=O)CNC(=O)[C@H](C)NC(=O)[C@H](CC(C)C)NC(=O)[C@H](CC(C)C)NC(=O)[C@H](Cc1c[nH]c2ccccc12)NC(=O)[C@H](CC(N)=O)NC(=O)[C@@H](NC(=O)[C@H](Cc1ccccc1)NC(=O)[C@H](CCC(=O)O)NC(=O)C(C)(C)NC(=O)[C@H](C)NC(=O)[C@H](C)NC(=O)[C@H](CCC(N)=O)NC(=O)[C@H](CCCCN)NC(=O)[C@H](CC(=O)O)NC(=O)[C@H](CC(C)C)NC(=O)[C@H](Cc1ccc(O)cc1)NC(=O)[C@@H](NC(=O)[C@H](CO)NC(=O)[C@H](Cc1ccc(O)cc1)NC(=O)[C@H](CC(=O)O)NC(=O)[C@H](CO)NC(=O)[C@@H](NC(=O)[C@H](Cc1ccccc1)NC(=O)[C@@H](NC(=O)CNC(=O)[C@H](CCC(=O)O)NC(=O)CSCC(=O)NCCN1CCSC1=O)[C@@H](C)O)[C@@H](C)O)[C@@H](C)CC)C(C)C)C(N)=O)C(=O)O [Compound 86] | 61% | 1 to 10 nM | 61% | 1 to 10 nM | > 1000 nM | 110% | 0.1 to 1 nM | 110% | 0.1 to 1 nM | – | – | – | – | –
6 | CCCCCCCCCCCCCCCC(=O)N[C@@H](CCC(=O)NCCCC[C@H](NC(=O)[C@H](CO)NC(=O)[C@@H]1CCCN1C(=O)[C@@H]1CCCN1C(=O)[C@@H]1CCCN1C(=O)[C@H](C)NC(=O)CNC(=O)[C@H](CO)NC(=O)[C@H](CO)NC(=O)[C@@H]1CCCN1C(=O)CNC(=O)CNC(=O)[C@H](C)NC(=O)[C@H](CC(C)C)NC(=O)[C@H](CC(C)C)NC(=O)[C@H](Cc1c[nH]c2ccccc12)NC(=O)[C@H](CC(N)=O)NC(=O)[C@@H](NC(=O)[C@H](Cc1ccccc1)NC(=O)[C@H](CCC(=O)O)NC(=O)C(C)(C)NC(=O)[C@H](C)NC(=O)[C@H](C)NC(=O)[C@H](CCC(N)=O)NC(=O)[C@H](CCCCN)NC(=O)[C@H](CC(=O)O)NC(=O)[C@H](CC(C)C)NC(=O)[C@H](Cc1ccc(O)cc1)NC(=O)[C@@H](NC(=O)[C@H](CO)NC(=O)[C@H](Cc1ccc(O)cc1)NC(=O)[C@H](CC(=O)O)NC(=O)[C@H](CO)NC(=O)[C@@H](NC(=O)[C@H](Cc1ccccc1)NC(=O)[C@@H](NC(=O)CNC(=O)[C@H](CCC(=O)O)NC(=O)CSCC(=O)NCCN1C(=O)CC[C@H](C)C1=O)[C@@H](C)O)[C@@H](C)O)[C@@H](C)CC)C(C)C)C(N)=O)C(=O)O [Compound 92] | 85 to 88% | – | 85 to 88% | – | – | 94 to 104% | – | 94 to 104% | – | 0.1 to 1 nM | 0.1 to 1 nM | > 1000 nM | 1 to 10 nM | 1 to 10 nM
